Where a name gives a salt, the structure may show the parent alone.
Tests used:
isolated rat bladder = assay: Transmural electrical field stimulation-induced contraction of isolated rat bladder; details: AUC of contractile response, value before treatment = 100%, SD female rat bladder strip, read-out: Enhancement rate of isolated bladder contraction (% of pre)
Description: Effects on Transmural Electrical Field Stimulation-Induced Contraction of Isolated Rat Bladder
As an effect on the nerve stimulation-dependent bladder contraction in vitro, the effect of the Example compound of the present invention in the transmural electrical field stimulation-induced contraction of isolated rat bladder was measured by the following method. That is, from the bladder isolated from a Spraque-Dawley (SD) female rat (Japan SLC, Inc.), a longitudinal bladder strip having a width of about 2 mm and a length of about 10 mm was prepared. The prepared bladder strip was suspended in an organ bath filled with 10 mL of a Krebs-Henseleit solution. The Krebs-Henseleit solution was bubbled with 95% O2 and 5% CO2, and kept at 37° C. After stabilization at an initial tension of 1 g, contraction was induced twice with 60 mM KCl. The strip was washed with the Krebs-Henseleit solution and stabilized, and then contraction was induced with transmural electrical field stimulation at 20 V (stimulation frequency of 8 Hz, pulse width of 0.3 msec, and stimulation time of 10 seconds) by an electrical stimulation device (Nihon Kohden Corporation). At an interval of 2 minutes, transmural electrical field stimulation was repeated and the voltage was adjusted to make the contractile amplitude about 50% of the contractile response by 20 V. After stabilization of the contraction by the transmural electrical field stimulation, 10 μL of the test substance (final concentrations of 3 μM, 10 μM, and 30 μM), which had been dissolved in 100% dimethylsulfoxide in advance was added. The test substance was cumulatively administered at the next concentration after the contractile response at a lower concentration had been stabilized. The responses were put into a personal computer through PowerLab (registered trademark) (AD Instruments), and analyzed with LabChart (registered trademark) (AD Instruments). The area under the response of each contractile response (area under curve, AUC) was calculated and the value before the treatment with the test substance was set to 100%. Based on this, the enhancement rate of the isolated bladder contraction (% of pre) after the treatment with the test substance was calculated.
The enhancement rates of the isolated bladder contraction due to several 10 μM Example compounds which are the compounds of the formula (I) are shown in Table 2.

[1] = test system: intravesical pressure in anesthetized rats; assay: Pelvic nerve electrical stimulation-induced elevation of intravesical pressure in anesthetized rats; assay type: in vivo, rat; details: 3 mg/kg intravenous; maximum effect during 1 hour after administration; pre-treatment AUC = 100%; SD female rats
Description: Effect on Pelvic Nerve Electrical Stimulation-Induced Elevation of Intravesical Pressure in Anesthetized Rats
As an effect on the nerve stimulation-dependent bladder contraction in vivo, the effect of the Example compound of the present invention in the pelvic nerve electrical stimulation-induced elevation of the intravesical pressure in rats was measured by the following method. That is, using SD female rats (Japan SLC, Inc.), the lower abdomen was incised in the midline under anesthesia with pentobarbital (50 mg/kg ip). The ureter on both sides was ligated and cut, and then a cannula for measuring the intravesical pressure (PE-50) was inserted into the bladder from the external urethral orifice and fixed by a clip. About 200 μL of physiological saline was injected through the cannula inserted into the bladder, the other side was then connected to a pressure transducer, and the intravesical pressure was measured. Under observation using a stereomicroscope, the pelvic nerve near the bladder was isolated and an electrode (Unique Medical) for nerve stimulation was placed. The abdominal cavity was filled with mineral oil (MP BIOMEDICALS). […] After the elevation of the intravesical pressure by electrical stimulation was stabilized three times or more, the test substance (dose of 3 mg/kg) was administered at a volume of 1 mL/kg from a catheter placed in the vein and the effect of the test substance on the elevation of the intravesical pressure was measured for 1 hour. […]
The responses were put into a personal computer through PowerLab (registered trademark) (AD Instruments), and analyzed with LabChart (registered trademark). The AUC of each elevation of the intravesical pressure was calculated. The average value of three values before the treatment with the test substance was set to 100%, and the elevation rate of the intravesical pressure (% of pre) after the treatment with the test substance was calculated. […]

With C[C@@H]1CCCN1Cc1sc(NC(=O)c2cnc(N3CCC(C(=O)O)CC3)cn2)nc1-c1cc(Cl)cs1 [Example 4, 1-(5-{[4-(4-chloro-2-thienyl)-5-{[(2R)-2-methylpyrrolidin-1-yl]methyl}-1,3-thiazol-2-yl]carbamoyl}pyrazin-2-yl)piperidine-4-carboxylic acid dihydrochloride] the activity at 10 µM (isolated rat bladder) was 180% and the “Elevation rate of intravesical pressure (% of pre)” value (“Elevation rate … (% of pre)” below) [1] was 184 % of pre.

CC[C@@H]1CCCN1Cc1sc(NC(=O)c2cnc(N3CCC(C(=O)O)CC3)cn2)nc1-c1cc(F)cc(C(F)(F)F)c1 [Example 115] was tested, and the activity at 10 µM (isolated rat bladder) was 121% and the “Elevation rate … (% of pre)” value [1] was 131 % of pre.

For CC[C@@H]1CCCN1Cc1sc(NC(=O)c2cnc(N3CCC(C(=O)O)CC3)cn2)nc1-c1ccc(OC)c(C(F)(F)F)c1 [Example 156], the activity at 10 µM (isolated rat bladder) was 135% and the “Elevation rate … (% of pre)” value [1] was 130 % of pre.
